Experimental data taken from paper PMC9604400, “Synthesis, Anticancer and Antitubercular Properties of New Chalcones and Their Nitrogen-Containing Five-Membered Heterocyclic Hybrids Bearing Sulfonamide Moiety” (International Journal of Molecular Sciences, 2022).
Values after ≈ are worked out from the molar mass of the structure shown.

Legend:
[1] = test system: renal cancer cell lines; assay: NCI-60 screen (SRB), renal cancer panel; assay type: cell-based; settings: Homo sapiens, single dose 10 μM, read-out: GI (growth inhibition), range over panel
[2] = test system: BT-549; assay: NCI-60 screen (SRB), breast cancer; settings: Homo sapiens; for IC50: BT-549; for CC50: BT-549, read-out: LC50
[3] = test system: UACC-257; assay: NCI-60 screen (SRB), melanoma; settings: Homo sapiens; for IC50: UACC-257; for CC50: UACC-257, read-out: LC50
[4] = test system: Mycobacterium bovis BCG (ATCC 35734); assay: microbe, parasite or virus in culture; assay type: cell-based; settings: Mycobacterium tuberculosis variant bovis BCG, read-out: MIC Against M. bovis BCG
[5] = test system: NCI-H522; assay: NCI-60 screen (SRB), non-small cell lung cancer; settings: Homo sapiens; for IC50: NCI-H522; for CC50: NCI-H522, read-out: LC50
[6] = test system: 786-0; assay: NCI-60 screen (SRB), renal cancer; settings: Homo sapiens; for IC50: 786-0; for CC50: 786-0, read-out: LC50
[7] = test system: NCI/ADR-RES; assay: NCI-60 screen (SRB), ovarian cancer; settings: Homo sapiens; for CC50: read-out: LC50
[8] = test system: HL-60(TB); assay: cells; settings: Homo sapiens; for IC50: HL-60; for CC50: HL-60, read-out: LC50
[9] = Cytotoxicity on Vero cell line (MTT); assay type: cell-based, African green monkey; settings: African green monkey, Vero cells (African green monkey kidney, ATCC CCL-81); MTT, 24 h
[10] = test system: Vero cell line; assay: Cytotoxicity on Vero cell line (MTT); assay type: cell-based, African green monkey; settings: Vero IC50 / MIC M. tuberculosis H37Rv
[11] = test system: HCT-15; assay: NCI-60 screen (SRB), colon cancer; settings: for IC50 / CC50: Homo sapiens; for IC50: HCT-15; for CC50: HCT-15, read-out: LC50
[12] = test system: leukemia cell lines; assay: NCI-60 screen (SRB), leukemia panel; assay type: cell-based; settings: Homo sapiens; for inhibition at 10 µM: leukemia panel, single dose 10 μM, read-out: GI (growth inhibition), range over panel
[13] = test system: Mycobacterium tuberculosis H37Rv (ATCC 27294); assay: microbe, parasite or virus in culture; assay type: cell-based; settings: Mycobacterium tuberculosis; agar dilution SPOTi; read-out: MIC Against M. tuberculosis H37Rv
[14] = test system: U251; assay: NCI-60 screen (SRB), CNS cancer; settings: Homo sapiens; for IC50: U-251; for CC50: U-251, read-out: LC50
[15] = test system: MDA-MB-468; assay: NCI-60 screen (SRB), breast cancer; settings: for IC50 / CC50: Homo sapiens; for IC50: MDA-MB-468; for CC50: MDA-MB-468, read-out: LC50; for lethality: MDA-MB-468, single dose 10 μM
[16] = test system: colon cancer cell lines; assay: NCI-60 screen (SRB), colon cancer panel; assay type: cell-based; settings: Homo sapiens, single dose 10 μM, read-out: GI (growth inhibition), range over panel
[17] = test system: PC-3; assay: NCI-60 screen (SRB), prostate cancer; settings: Homo sapiens; for IC50: PC-3; for CC50: PC-3, read-out: LC50

Row | SMILES | IC50 [2] | CC50 [2] | IC50 [3] | CC50 [3] | IC50 [5] | CC50 [5] | IC50 [6] | CC50 [6] | IC50 [7] | CC50 [7] | IC50 [8] | CC50 [8] | IC50 [11] | CC50 [11] | IC50 [14] | CC50 [14] | IC50 [15] | CC50 [15] | IC50 [17] | CC50 [17] | other results
1 | COc1cc(OC)c(S(N)(=O)=O)cc1C(=O)C=Cc1ccccc1 [Compound 17a, 5-Cinnamoyl-2,4-dimethoxybenzenesulfonamide] | 2650 nM | 40.6 µM | 9.96 µM | 47.8 µM | 6560 nM | 49.7 µM | 4.82 µM | 63.2 µM | 15.5 µM | > 100 µM | 2270 nM | > 100 µM | 3.55 µM | 57.5 µM | 2920 nM | 39.2 µM | 1200 nM | 43.9 µM | 5.95 µM | 50.4 µM | inhibition at 10 µM [1]: 66.2 to 100%; MIC [4]: > 29 µM; IC50 at 24 h [9]: 1060 ± 1210 nM; Selectivity Index (SI) (SI = IC50/MIC) [10]: 0.04; inhibition at 10 µM [12]: 70.8 to 94.8%; MIC [13]: 29 µM (≈ 10.1 µg/mL); lethality [15]: 43.37%; inhibition at 10 µM [16]: 72.5 to 96.2%
2 | COc1cc(OC)c(S(N)(=O)=O)cc1C(=O)/C=C/c1ccc(Cl)cc1 [Compound 17b, (E)-5-(3-(4-Chlorophenyl)acryloyl)-2,4-dimethoxybenzenesulfonamide] | 2730 nM | 5.97 µM | 5.46 µM | 71.6 µM | 1630 nM | 7.14 µM | 1.9 µM | 9.83 µM | 3.97 µM | > 100 µM | 1910 nM | > 100 µM | 1.46 µM | > 100 µM | 2180 nM | > 100 µM | 3080 nM | 6.54 µM | 1.6 µM | 20.8 µM | inhibition at 10 µM [1]: 78.5 to 100%; lethality ([11]; HCT-15, single dose 10 μM): 41.55%; inhibition at 10 µM [12]: 92.8 to 100%; lethality [15]: 57.82%; inhibition at 10 µM [16]: 92.2 to 100%
3 | COc1cc(OC)c(S(N)(=O)=O)cc1C(=O)/C=C/c1ccc(C)cc1 [Compound 17c, (E)-2,4-Dimethoxy-5-(3-(p-tolyl)acryloyl)benzenesulfonamide] | 2180 nM | 31.6 µM | 3.86 µM | 41.9 µM | 2480 nM | 32.5 µM | 3.85 µM | > 100 µM | 5.25 µM | > 100 µM | 2520 nM | > 100 µM | 2.56 µM | 74.8 µM | 2660 nM | 32.7 µM | 1960 nM | 54.3 µM | 3.42 µM | 55.1 µM | inhibition at 10 µM [12]: 78.9 to 94.3%; lethality [15]: 36.18%; inhibition at 10 µM [16]: 83 to 100%
4 | COc1cc(OC)c(S(=O)(=O)N(CCCl)CCCl)cc1C(=O)/C=C/c1cc(OC)c(OC)c(OC)c1 [Compound 18e, (E)-N,N-bis(2-Chloroethyl)-2,4-dimethoxy-5-(3-(3,4,5-trimethoxyphenyl)acryloyl)benzenesulfonamide] | 2920 nM | 6.24 µM | 3.89 µM | 9.14 µM | 1660 nM | 8.59 µM | 5.66 µM | > 100 µM | > 100 µM | > 100 µM | 1600 nM | > 100 µM | 3.98 µM | > 100 µM | 3680 nM | 7.61 µM | 3660 nM | 8.84 µM | > 100 µM | > 100 µM | IC50 ([12]; read-out: IC50 (GI50), range over leukemia panel): 990 to 2520 nM
